Literature values in US20160286792A1, “METHOD AND SYSTEM FOR PEST CONTROL” (priority 2013, published 2016).
Read-outs that look alike come from different tables or passages of the source.

Assays:
[1] = aqueous, at 25 degrees

**Q.** Which “concentration of saturated solution” value [1] does the source give for calcium sulphate dihydrate [gypsum] here?
**A.** 2000 to 2500 µg/mL

**Q.** With O=[N+]([O-])NC1=NCCN1Cc1ccc(Cl)nc1 [Imidacloprid] as the compound, how does the toxicity to humans (humans) read?
**A.** low to medium toxicity

**Q.** What about the length of protection (termites; applied at 0.25% concentration) of the same compound?
**A.** up to 3 years

**Q.** With Cc1c(COC(=O)[C@@H]2[C@H](/C=C(\Cl)C(F)(F)F)C2(C)C)cccc1-c1ccccc1 (racemic) [Bifenthrin] as the compound, how does the length of protection (termites; applied at 0.05% concentration) read?
**A.** 10 years

**Q.** What about the length of protection (termites; applied at 0.1% concentration) of the same compound?
**A.** at least 10 years

**Q.** What about the length of protection (termites; applied at 0.25% concentration) of the same compound?
**A.** 3 years

**Q.** Which length of protection (termites; concentration varies depending on the brand) does the source give for CCOP(=S)(OCC)Oc1nc(Cl)c(Cl)cc1Cl [chlorpyrifos, Chlorpyrifos] here?
**A.** up to 5 years
